# Assay results reported in patent US20130178466A1, “Treatment of Microbial Infections” (BIOCOPEA LIMITED, priority 2009, published 2013).
# Like-named read-outs stand apart in the source and are kept apart here.
# Key:
# Influenza A/PR/8/34 = test: In vivo mouse challenge with lethal influenza (H1N1); design: species or system C57BL/6 female mice; conditions: H1N1-infected mice, single intra-peritoneal dose on day 3
# Procedure: Protocol: Fifty (50) C57BL/6 female mice (6-7 weeks old), were divided into five (5) experimental groups containing ten (10) animals each. On day 1, animals received an intranasal lethal dose (50 μl total, 25 μl nostril) of Influenza A/PR/8/34 under halothane induced anaesthesia. On Day 3, animals received one intra-peritoneal injection (100-150 μl) of the test compound (360 μg ibuproxam (BC1048), 54 μg oxametacin (BC1002), 180 μg benoxaprofen (BC 1005), 189 μg benoxaprofen hydroxamate (BC1006)).
# All animals were assessed daily for morbidity, weight loss and survival from Day 1 until at least Day 6. Morbidity variables (i.e. Body Condition, Posture, Activity, Piloerection, Respiration, Vocalisation, Ataxia and Oculo/Nasal Discharges) were recorded according to the following scale of severity: Normal (0), Mild (1), Laboured (2) and Severe/Cull-point (3).
# Using standard techniques as described above, mice were infected with a H1N1 virus which was allowed to become established in each of the subjects. […] The weight loss of both treated and untreated mice was then determined.
# TNF-α [1] = test: TNF-α levels in PBMC under Con A stimulation (ELISA); type: cell-based, human; conditions: for effect against ConA-stimulated TNF production (in words): Con A stimulated cells
# Procedure: (§1) The two mitogens that the inventors used to stimulate lymphocytes, and therefore assess immune function, were lipopolysaccharide (LPS) and Concanavalin A (Con A). LPS acts on B cells but not T cells, whereas Con A acts on T cells but not B cells.
# (§2) Blood was collected in 6 ml vacutainers (green cap). Blood was processed within 2 h of collection.
# (§3) Materials used: Non-coagulated blood; FCS; RPMI-1640 media supplemented with L-Gln and P/S; PBS; sterile tips and pipettes; Sterile 15 ml Falcon; Sterile V-bottom 96-well plates with lids; Neubauer chamber; Trypan Blue solution; 70% IPA solution; Accuspin-Histopaque tubes (Sigma, A7054)
# (§4) Procedure: • 1. Dilute samples 1:1 in sterile PBS; • 2. Add 30 ml of diluted blood into an Accuspin-Histopaque tube (Sigma, A7054); • 3. Centrifuge at 800 rcf 15 min at room temperature (RT); • 4. After centrifugation, the red blood cells will remain at the bottom below the frit. The monocytes (PBMC) will be present on a layer above the frit, with the plasma on top; • 5. Collect the PBMC layer with a pipette into a fresh 15 ml Falcon tube and top up to 15 ml of PBS; • 6. Centrifuge at 250 rcf 10 min at RT; • 7. Discard the supernatant, flick the pellet and add another 10 ml of PBS; • 8. Centrifuge at 250 rcf 10 min at RT; • 9. Repeat steps 7 and 8; • 10. Discard the supernatant and resuspend the pellet in 1 ml of complete medium (RPMI-1640 10% FCS); • 11. Count cells and make a 4×10^6 cell/ml suspension in complete medium. Add 100 μl of cell suspension per well in a V-bottom 96-well plate. Then add 50 μl of stimulant or vehicle in complete media, and 50 μl of drug or vehicle in complete media. Incubate the cells for 24 h at 37° C. 5% CO2; • 12. After incubation, take 60 μl of cell supernatant to measure IFNγ and TNFα by ELISA (OptEIA human IFNγ, cat No. 555142 and human TNF, Cat No. 555212) following manufacturer's instructions (BD Biosciences).
# TNF-α [2] = test: TNF-α levels in PBMC under LPS stimulation (ELISA); type: cell-based, human; conditions: for effect on TNF under LPS stimulation (in words): LPS stimulated cells
# Procedure: (§5) The two mitogens that the inventors used to stimulate lymphocytes, and therefore assess immune function, were lipopolysaccharide (LPS) and Concanavalin A (Con A). LPS acts on B cells but not T cells, whereas Con A acts on T cells but not B cells. […] Peripheral Blood Mononuclear Cells (PMBC) were independently administered with each mitogen, LPS or Con A, and then treated with ibuproxam, benoxaprofen hydroxamate or pentoxifylline. […] Blood was collected in 6 ml vacutainers (green cap). Blood was processed within 2 h of collection. Materials used: Non-coagulated blood; FCS; RPMI-1640 media supplemented with L-Gln and P/S; PBS; sterile tips and pipettes; Sterile 15 ml Falcon; Sterile V-bottom 96-well plates with lids; Neubauer chamber; Trypan Blue solution; 70% IPA solution; Accuspin-Histopaque tubes (Sigma, A7054) Procedure: • 1. Dilute samples 1:1 in sterile PBS; • 2. Add 30 ml of diluted blood into an Accuspin-Histopaque tube (Sigma, A7054); • 3. Centrifuge at 800 rcf 15 min at room temperature (RT); • 4. After centrifugation, the red blood cells will remain at the bottom below the frit. The monocytes (PBMC) will be present on a layer above the frit, with the plasma on top; • 5. Collect the PBMC layer with a pipette into a fresh 15 ml Falcon tube and top up to 15 ml of PBS; • 6. Centrifuge at 250 rcf 10 min at RT; • 7. Discard the supernatant, flick the pellet and add another 10 ml of PBS; • 8. Centrifuge at 250 rcf 10 min at RT; • 9. Repeat steps 7 and 8; • 10. […] Count cells and make a 4×10^6 cell/ml suspension in complete medium. Add 100 μl of cell suspension per well in a V-bottom 96-well plate. Then add 50 μl of stimulant or vehicle in complete media, and 50 μl of drug or vehicle in complete media. Incubate the cells for 24 h at 37° C. 5% CO2; • 12. […] The values in the Table are expressed as the percentage value of the LPS only control. […] Standard deviation values (st error) are given underneath each value of expressed IFN-γ or TNF-α levels.
# IFN-γ [3] = test: IFN-γ levels in PBMC under LPS stimulation (ELISA); type: cell-based, human; design: production of IFN after LPS stimulation (in words): dose or concentration left out as unconfirmed
# Procedure: as §5
# IFN-γ [4] = test: IFN-γ levels in PBMC under Con A stimulation (ELISA); type: cell-based, human; conditions: for effect against ConA-stimulated IFN production (in words): Con A stimulated cells
# Procedure: as §1, §2, §3, §4
# [5] = ConA, 1 μM, compared to 100% untreated cells under Con A stimulation
# [6] = ConA, 10 μM, compared to 100% untreated cells under Con A stimulation
# [7] = ConA, 100 μM, compared to 100% untreated cells under Con A stimulation
# [8] = LPS, 1 μM, percentage of LPS only control (100%)
# [9] = LPS, 10 μM, percentage of LPS only control (100%)
# [10] = LPS, 100 μM, percentage of LPS only control (100%)
# [11] = no LPS, 1 μM, percentage of LPS only control
# [12] = no LPS, 10 μM, percentage of LPS only control
# [13] = no LPS, 100 μM, percentage of LPS only control
Compound,"survival rate versus control, untreated mice (Influenza A/PR/8/34)",effect against ConA-stimulated TNF production (in words) (TNF-α [1]),TNF-α % signal (TNF-α [1]; [5]) [%],TNF-α % signal (TNF-α [1]; [6]) [%],TNF-α % signal (TNF-α [1]; [7]) [%],"TNF-α % signal (TNF-α [1]; no ConA, 1 μM) [%]","TNF-α % signal (TNF-α [1]; no ConA, 10 μM) [%]","TNF-α % signal (TNF-α [1]; no ConA, 100 μM) [%]",TNF-α % signal (TNF-α [2]; [8]) [%],TNF-α % signal (TNF-α [2]; [9]) [%],TNF-α % signal (TNF-α [2]; [10]) [%],TNF-α % signal (TNF-α [2]; [11]) [%],TNF-α % signal (TNF-α [2]; [12]) [%],TNF-α % signal (TNF-α [2]; [13]) [%],IFN-γ % signal (IFN-γ [3]; [8]) [%],IFN-γ % signal (IFN-γ [3]; [9]) [%],IFN-γ % signal (IFN-γ [3]; [10]) [%],IFN-γ % signal (IFN-γ [3]; [11]) [%],IFN-γ % signal (IFN-γ [3]; [12]) [%],IFN-γ % signal (IFN-γ [3]; [13]) [%],other results
"CC(C(=O)NO)c1ccc2oc(-c3ccc(Cl)cc3)nc2c1 (stereo not shown) [BC1006, benoxaprofen hydroxamate]",higher survival rate than the control,clear effects,83.37,38.65,51.50,2.84,1.62,19.51,106.25,101.47,57.77,−2.29,−2.27,11.97,35.29,16.67,21.21,16.74,13.46,12.38,"maximal effect against TNF under LPS stimulation (TNF-α [2]; at the higher concentration): 41%; effect against ConA-stimulated IFN production (in words) (IFN-γ [4]): clear effects; IFN-γ % signal (IFN-γ [4]; [5]): 98.35%; IFN-γ % signal (IFN-γ [4]; [6]): 33.81%; IFN-γ % signal (IFN-γ [4]; [7]): 3.78%; IFN-γ % signal (IFN-γ [4]; no ConA, 1 μM): 3.76%; IFN-γ % signal (IFN-γ [4]; no ConA, 10 μM): 2.80%; IFN-γ % signal (IFN-γ [4]; no ConA, 100 μM): 1.82%"
"CC(=O)CCCCn1c(=O)c2c(ncn2C)n(C)c1=O [BC1042, pentoxifylline]",higher survival rate than the control,little effect,101.46,102.31,103.71,1.11,−2.37,−0.77,113.04,107.28,114.60,1.15,−2.45,−0.80,102.11,98.28,40.73,3.98,1.48,2.03,"effect on TNF under LPS stimulation (in words) (TNF-α [2]): less of an effect; production of IFN after LPS stimulation (in words) (IFN-γ [3]): less pronounced than ibuproxam; effect against ConA-stimulated IFN production (in words) (IFN-γ [4]): little effect; IFN-γ % signal (IFN-γ [4]; [5]): 108.10%; IFN-γ % signal (IFN-γ [4]; [6]): 97.98%; IFN-γ % signal (IFN-γ [4]; [7]): 92.61%; IFN-γ % signal (IFN-γ [4]; no ConA, 1 μM): 1.13%; IFN-γ % signal (IFN-γ [4]; no ConA, 10 μM): 0.42%; IFN-γ % signal (IFN-γ [4]; no ConA, 100 μM): 0.58%"
"CC(C)Cc1ccc(C(C)C(=O)NO)cc1 (stereo not shown) [BC1048, ibuproxam]",higher survival rate than the control,modest effect,109.64,106.74,79.25,3.08,0.48,−1.25,105.78,105.67,109.93,3.14,0.48,−1.28,89.21,96.62,−1.28,−4.14,−3.67,−6.29,"effect on TNF under LPS stimulation (in words) (TNF-α [2]): less of an effect; production of IFN after LPS stimulation (in words) (IFN-γ [3]; highest concentration): completely blocks; effect against ConA-stimulated IFN production (in words) (IFN-γ [4]): modest effect; IFN-γ % signal (IFN-γ [4]; [5]): 94.90%; IFN-γ % signal (IFN-γ [4]; [6]): 97.25%; IFN-γ % signal (IFN-γ [4]; [7]): 78.18%; IFN-γ % signal (IFN-γ [4]; no ConA, 1 μM): −0.68%; IFN-γ % signal (IFN-γ [4]; no ConA, 10 μM): −0.61%; IFN-γ % signal (IFN-γ [4]; no ConA, 100 μM): −1.04%"
"CC(C(=O)O)c1ccc2oc(-c3ccc(Cl)cc3)nc2c1 (stereo not shown) [BC1005, benoxaprofen]",higher survival rate than the control,–,–,–,–,–,–,–,–,–,–,–,–,–,–,–,–,–,–,–,–
"COc1ccc2c(c1)c(CC(=O)NO)c(C)n2C(=O)c1ccc(Cl)cc1 [BC1002, oxametacin]",higher survival rate than the control,–,–,–,–,–,–,–,–,–,–,–,–,–,–,–,–,–,–,–,–
